Legend:
Test in all cases: Biomarker study proliferation (CellTiter-Glo)
Type in all cases: cell-based
HCC1187 = system: HCC1187
Outline: (§1)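 Seven days' exposure to a 10-point threefold dilution series precedes the CellTiter-Glo luminescence read. Plating uses 5000 cells/well in supplier-recommended medium, and 5 μM staurosporine defines maximal inhibition.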

SKHEP1 = system: SKHEP1
Outline: as §1

SHSY5Y = system: SHSY5Y
Outline: as §1

IGROV1 = system: IGROV1
Outline: as §1

C33A = system: C33A
Outline: as §1

NCIH2347 = system: NCIH2347
Outline: as §1

SKOV3 = system: SKOV3
Outline: as §1

KYSE270 = system: KYSE270
Outline: as §1

RKO = system: RKO
Outline: as §1

NCIH520 = system: NCIH520
Outline: as §1

TCCSUP = system: TCCSUP
Outline: as §1

NCIH1703 = system: NCIH1703
Outline: as §1

NCIH441 = system: NCIH441
Outline: as §1

ZR751 = system: ZR751
Outline: as §1

HT1197 = system: HT1197
Outline: as §1

COLO320 = system: COLO320
Outline: as §1

MKN1 = system: MKN1
Outline: as §1

SW1271 = system: SW1271
Outline: as §1

`Cc1cc(NC2CCN(C(=O)O[C@H]3CCN(C(=O)/C=C/CN(C)C)C3)CC2)n2ncc(C(C)C)c2n1` [Example 1, [(3S)-1-[(E)-4-(dimethylamino)but-2-enoyl]pyrrolidin-3-yl] 4-[(3-isopropyl-5-methyl-pyrazolo[1,5-a]pyrimidin-7-yl)amino]piperidine-1-carboxylate] was tested, and the “Anti-proliferation effect % Inh.” value (HCC1187; HCC1187, BREAST, 7 days) was 73%, the “Anti-proliferation effect Outcome” value (HCC1187; HCC1187, BREAST, 7 days) was “Cytotoxic (cytotoxic (IC50<1 μM and % inhibition ≥70%))” and the IC50 (HCC1187; Homo sapiens, HCC1187, 168 h, read-out: Anti-proliferation effect IC50) was 27 nM. The IC50 (SKHEP1; Homo sapiens, SK-HEP1, 168 h, read-out: Anti-proliferation effect IC50) was 118 nM, the “Anti-proliferation effect % Inh.” value (SKHEP1; SKHEP1, LIVER, 7 days) was 71% and the “Anti-proliferation effect Outcome” value (SKHEP1; SKHEP1, LIVER, 7 days) was “Cytotoxic (cytotoxic (IC50<1 μM and % inhibition ≥70%))”. For the same compound, the IC50 (SHSY5Y; Homo sapiens, SH-SY5Y, 168 h, read-out: Anti-proliferation effect IC50) was 59 nM, the “Anti-proliferation effect % Inh.” value (SHSY5Y; SHSY5Y, CNS, 7 days) was 95% and the “Anti-proliferation effect Outcome” value (SHSY5Y; SHSY5Y, CNS, 7 days) was “Cytotoxic (cytotoxic (IC50<1 μM and % inhibition ≥70%))”. The IC50 (IGROV1; Homo sapiens, IGROV-1, 168 h, read-out: Anti-proliferation effect IC50) was 72 nM, the “Anti-proliferation effect % Inh.” value (IGROV1; IGROV1, OVARY, 7 days) was 70% and the “Anti-proliferation effect Outcome” value (IGROV1; IGROV1, OVARY, 7 days) was “Cytotoxic (cytotoxic (IC50<1 μM and % inhibition ≥70%))”. The “Anti-proliferation effect % Inh.” value (C33A; C33A, CERVIX, 7 days) was 79%, the “Anti-proliferation effect Outcome” value (C33A; C33A, ENDOMETRIUM, 7 days) was “Cytotoxic (cytotoxic (IC50<1 μM and % inhibition ≥70%))” and the IC50 (C33A; Homo sapiens, C-33-A, 168 h, read-out: Anti-proliferation effect IC50) was 14 nM. The IC50 (NCIH2347; Homo sapiens, NCI-H2347, 168 h, read-out: Anti-proliferation effect IC50) was 661 nM, the “Anti-proliferation effect % Inh.” value (NCIH2347; NCIH2347, LUNG, 7 days) was 45% and the “Anti-proliferation effect Outcome” value (NCIH2347; NCIH2347, LUNG, 7 days) was “Cytostatic (cytostatic (IC50<1 μM and % inhibition <70%))”. For the same compound, the IC50 (SKOV3; Homo sapiens, SK-OV-3, 168 h, read-out: Anti-proliferation effect IC50) was > 10000 nM, the “Anti-proliferation effect % Inh.” value (SKOV3; SKOV3, OVARY, 7 days) was 27% and the “Anti-proliferation effect Outcome” value (SKOV3; SKOV3, OVARY, 7 days) was “Insensitive (insensitive (IC50≥1 μM))”. For the same compound, the IC50 (KYSE270; Homo sapiens, KYSE-270, 168 h, read-out: Anti-proliferation effect IC50) was > 10000 nM, the “Anti-proliferation effect % Inh.” value (KYSE270; KYSE270, OESOPHAGUS, 7 days) was −180% and the “Anti-proliferation effect Outcome” value (KYSE270; KYSE270, OESOPHAGUS, 7 days) was “Insensitive (insensitive (IC50≥1 μM))”. For the same compound, the IC50 (RKO; Homo sapiens, 168 h, read-out: Anti-proliferation effect IC50) was 118 nM, the “Anti-proliferation effect % Inh.” value (RKO; INTESTINE, 7 days) was 61% and the “Anti-proliferation effect Outcome” value (RKO; INTESTINE, 7 days) was “Cytostatic (cytostatic (IC50<1 μM and % inhibition <70%))”. For the same compound, the IC50 (NCIH520; Homo sapiens, NCI-H520, 168 h, read-out: Anti-proliferation effect IC50) was 82 nM, the “Anti-proliferation effect % Inh.” value (NCIH520; NCIH520, LUNG, 7 days) was 77% and the “Anti-proliferation effect Outcome” value (NCIH520; NCIH520, LUNG, 7 days) was “Cytotoxic (cytotoxic (IC50<1 μM and % inhibition ≥70%))”. The IC50 (TCCSUP; Homo sapiens, TCC-SUP, 168 h, read-out: Anti-proliferation effect IC50) was 40 nM, the “Anti-proliferation effect % Inh.” value (TCCSUP; TCCSUP, URINARY, 7 days) was 61% and the “Anti-proliferation effect Outcome” value (TCCSUP; TCCSUP, URINARY, 7 days) was “Cytostatic (cytostatic (IC50<1 μM and % inhibition <70%))”. For the same compound, the IC50 (NCIH1703; Homo sapiens, NCI-H1703, 168 h, read-out: Anti-proliferation effect IC50) was 40 nM, the “Anti-proliferation effect % Inh.” value (NCIH1703; NCIH1703, LUNG, 7 days) was 92% and the “Anti-proliferation effect Outcome” value (NCIH1703; NCIH1703, LUNG, 7 days) was “Cytotoxic (cytotoxic (IC50<1 μM and % inhibition ≥70%))”. The IC50 (NCIH441; Homo sapiens, NCI-H441, 168 h, read-out: Anti-proliferation effect IC50) was 14 nM, the “Anti-proliferation effect % Inh.” value (NCIH441; NCIH441, LUNG, 7 days) was 84% and the “Anti-proliferation effect Outcome” value (NCIH441; NCIH441, LUNG, 7 days) was “Cytotoxic (cytotoxic (IC50<1 μM and % inhibition ≥70%))”. For the same compound, the IC50 (ZR751; Homo sapiens, ZR-75-1, 168 h, read-out: Anti-proliferation effect IC50) was 43 nM, the “Anti-proliferation effect % Inh.” value (ZR751; ZR751, BREAST, 7 days) was 69% and the “Anti-proliferation effect Outcome” value (ZR751; ZR751, BREAST, 7 days) was “Cytostatic (cytostatic (IC50<1 μM and % inhibition <70%))”. For the same compound, the “Anti-proliferation effect % Inh.” value (HT1197; HT1197, URINARY, 7 days) was 55%, the “Anti-proliferation effect Outcome” value (HT1197; HT1197, URINARY, 7 days) was “Cytostatic (cytostatic (IC50<1 μM and % inhibition <70%))” and the IC50 (HT1197; Homo sapiens, HT1197, 168 h, read-out: Anti-proliferation effect IC50) was 281 nM. The “Anti-proliferation effect % Inh.” value (COLO320; COLO320, INTESTINE, 7 days) was 73%, the “Anti-proliferation effect Outcome” value (COLO320; COLO320, INTESTINE, 7 days) was “Cytotoxic (cytotoxic (IC50<1 μM and % inhibition ≥70%))” and the IC50 (COLO320; Homo sapiens, COLO 320, 168 h, read-out: Anti-proliferation effect IC50) was 189 nM. For the same compound, the IC50 (MKN1; Homo sapiens, MKN-1, 168 h, read-out: Anti-proliferation effect IC50) was 23 nM, the “Anti-proliferation effect % Inh.” value (MKN1; MKN1, STOMACH, 7 days) was 80% and the “Anti-proliferation effect Outcome” value (MKN1; MKN1, STOMACH, 7 days) was “Cytotoxic (cytotoxic (IC50<1 μM and % inhibition ≥70%))”. The IC50 (SW1271; SW1271, 168 h, read-out: Anti-proliferation effect IC50) was 24 nM, the “Anti-proliferation effect % Inh.” value (SW1271; SW1271, LUNG, 7 days) was 67% and the “Anti-proliferation effect Outcome” value (SW1271; SW1271, LUNG, 7 days) was “Cytostatic (cytostatic (IC50<1 μM and % inhibition <70%))”.

Source: patent publication US20210032257A1, “(E)-1-(4-(DIMETHYLAMINO)BUT-2-ENOYL)PYRROLIDIN-3-YL 4-((3-ISOPROPYL-5-METHYLPYRAZOLO[1,5-A]PYRIMIDIN-7-YL)AMINO)PIPERIDINE-1-CARBOXYLATE FOR INHIBITING CDK7” (Eli Lilly and Company, priority 2017, published 2021)
